“And” between values parts separate entries of the source, which are not always exact repeats. Equal entries are not always repeated.
Tested on: human telomeric DNA G-quadruplex
Assay: ESI-TOF-MS G-quadruplex binding assay
Conditions: for Relative binding affinity (RBA): negative ESI-TOF-MS, 10 uM human telomeric DNA (27 nt) and 10 uM compound in 10 mM ammonium acetate, RBA = sum of complexes peaks areas / sum of G-quadruplex DNA peaks areas, means ± SD
Protocol: UV data were recorded using a Beckman DU 800 UV/vis spectrophotometer. HRESIMS were recorded on an Agilent 6230 ESI-TOF mass spectrometer. NMR spectra were obtained from Bruker Ascend™ 600 spectrometer equipped with a cyro platform. Silica gel (Devisil®, 40˜63 micron) was used for column chromatography. Silica gel plates (Merck, DC Kieselgel 60 F254) was used for TLC analysis. High-performance liquid chromatography (HPLC) was carried out on Agilent 1100, Agilent 1200 and Waters 1525-2489 apparatus with a semi-preparative column (Waters, XBridge® Prep C18, 5 μm, 250×10 mm). 27 nt human telomeric DNA (M monoisotopic=8492.4 Da, Invitrogen) was used for G-quadruplex binding assay, which was the same as the one applied in Bai, L. P. et al. PloS One 2013, 8, e53962. The G-quadruplex binding analysis was conducted on a Bruker maXis impact mass spectrometer equipped with a kdScientific syringe pump (Holliston, Mass., USA). Solvents for HPLC separation analysis were HPLC grade.
Electrospray ionization time-of-flight mass spectrometry (ESI-TOF-MS) experiments were conducted on a Bruker maXis impact mass spectrometer in the negative mode (Bai, L. P., Plos One, 2013, 8, e53962; Bai, L. P., Sci. Rep. 2014, 4, 6767). The ESI source parameters were set as follows: end plate offset voltage of 500 V, capillary voltage of 3000 V, nebulizer of 1.0 bar, dry gas flow of 4.0 L/min at 160° C. The flow rate of sample injection into the mass spectrometer was set at 3 uL/min by using a kdScientific syringe pump. Each mass spectrum was obtained by an average of at least 30 scans. The mixture of a final concentration of 10 uM nucleic acid, i.e. human telomeric DNA (27 nt) (M=8496.6 Da), and 10 uM phenanthroindolizidine alkaloid in 10 mM ammonium acetate was directly injected into mass spectrometer. Data were obtained from three parallel samples of nucleic acid-drug complex solution, and then analyzed with the software of Compass DataAnalysis.
ESI-TOF-MS was utilized to investigate the non-covalent binding capacity of compounds 1 to 7, i.e. compounds of Formulas (2) to (8) with human telomeric DNA G-quadruplex formed by the human telomeric sequence. The human telomeric sequence is known and disclosed in Bai, L. P. et al. PloS One 2013, 8, e53962. 13aS-tylophorine compound 8, i.e. compound of Formula (9):
[drawing 17] and reference G-quadruplex binder sanguinarine were used as control (Bai, L. P., Anal. Bioanal. Chem., 2008, 392, 709; Bai, L. P., Bioorg. Med. Chem., 2006, 14, 5439). […] The relative binding affinities (RBA) of tested compounds were calculated to evaluate their binding capacities to human telomeric DNA G-quadruplex using the equation: RBA=Σcomplexes peaks areas/ΣG-quadruplex DNA peaks areas

SMILES	Relative binding affinity (RBA)	potency in RBA value, times that of 3-demethyl analogue compound 2 (ratio of RBA values)	RBA value, times higher than that of 2-methoxylated/hydroxylated analogues compound 5 or 1 (ratio of RBA values)
COc1cc2c(cc1O)c1cc3[n+](cc1c1cc(OC)c(OC)cc21)CCC3 [compound 1, 2-demethyldehydrotylophorine]	0.265 and 0.265 ± 0.008	–	–
COc1cc2c(cc1O)c1cc(O)ccc1c1cc3[n+](cc21)CCC3 [compound 2, 3-demethylanhydrodehydrotylophorinidine]	0.122 and 0.122 ± 0.007	–	–
COc1cc2c(cc1O)c1cc(OC)c(O)cc1c1cc3[n+](cc21)CCC3 [compound 3, 2-hydroxylanhydrodehydrotylophorinidine]	0.189 and 0.189 ± 0.002	–	–
COc1cc2c(cc1O)c1cc(OC)c(OC)cc1c1cc3[n+](cc21)CCC3 [compound 4, 6-demethyldehydrotylophorine]	0.238 and 0.238 ± 0.010	–	–
COc1cc2c3cc(OC)c(OC)cc3c3c[n+]4c(cc3c2cc1OC)CCC4 [compound 5, dehydrotylophorine]	0.290 and 0.290 ± 0.017	–	–
COc1ccc2c(c1)c1cc(O)c(OC)cc1c1c[n+]3c(cc21)CCC3 [compound 6, an hydrodehydrotylophorinidine]	0.437 and 0.437 ± 0.019	at least 3 times	–
COc1ccc2c(c1)c1cc(OC)c(OC)cc1c1c[n+]3c(cc21)CCC3 [compound 7, tylophoridicine D]	0.619 and 0.619 ± 0.016	–	at least 2 times
COc1cc2c3c(c4cc(OC)c(OC)cc4c2cc1OC)CN1CCC[C@H]1C3 [compound 8, 13aS-tylophorine, reference compound]	0.168 and 0.168 ± 0.007	–	–
